From patent US20170057955A1, “Pyridopyrimidinone Compounds for Modulating the Catalytic Activity of Histone Lysine Demethylases (KDMs)” (Dong-A Socio Holdings Co., Ltd., priority 2015, published 2017) come the findings set out here.

For this assay, the target named is T1, Recombinant human JARID1B/KDM5B (Homo sapiens, UniProt Q9UGL1).
T1 construct: purchased Active Motif 31432; host or cells: Sf9 insect cells
T1 sequence (Q9UGL1 whole entry): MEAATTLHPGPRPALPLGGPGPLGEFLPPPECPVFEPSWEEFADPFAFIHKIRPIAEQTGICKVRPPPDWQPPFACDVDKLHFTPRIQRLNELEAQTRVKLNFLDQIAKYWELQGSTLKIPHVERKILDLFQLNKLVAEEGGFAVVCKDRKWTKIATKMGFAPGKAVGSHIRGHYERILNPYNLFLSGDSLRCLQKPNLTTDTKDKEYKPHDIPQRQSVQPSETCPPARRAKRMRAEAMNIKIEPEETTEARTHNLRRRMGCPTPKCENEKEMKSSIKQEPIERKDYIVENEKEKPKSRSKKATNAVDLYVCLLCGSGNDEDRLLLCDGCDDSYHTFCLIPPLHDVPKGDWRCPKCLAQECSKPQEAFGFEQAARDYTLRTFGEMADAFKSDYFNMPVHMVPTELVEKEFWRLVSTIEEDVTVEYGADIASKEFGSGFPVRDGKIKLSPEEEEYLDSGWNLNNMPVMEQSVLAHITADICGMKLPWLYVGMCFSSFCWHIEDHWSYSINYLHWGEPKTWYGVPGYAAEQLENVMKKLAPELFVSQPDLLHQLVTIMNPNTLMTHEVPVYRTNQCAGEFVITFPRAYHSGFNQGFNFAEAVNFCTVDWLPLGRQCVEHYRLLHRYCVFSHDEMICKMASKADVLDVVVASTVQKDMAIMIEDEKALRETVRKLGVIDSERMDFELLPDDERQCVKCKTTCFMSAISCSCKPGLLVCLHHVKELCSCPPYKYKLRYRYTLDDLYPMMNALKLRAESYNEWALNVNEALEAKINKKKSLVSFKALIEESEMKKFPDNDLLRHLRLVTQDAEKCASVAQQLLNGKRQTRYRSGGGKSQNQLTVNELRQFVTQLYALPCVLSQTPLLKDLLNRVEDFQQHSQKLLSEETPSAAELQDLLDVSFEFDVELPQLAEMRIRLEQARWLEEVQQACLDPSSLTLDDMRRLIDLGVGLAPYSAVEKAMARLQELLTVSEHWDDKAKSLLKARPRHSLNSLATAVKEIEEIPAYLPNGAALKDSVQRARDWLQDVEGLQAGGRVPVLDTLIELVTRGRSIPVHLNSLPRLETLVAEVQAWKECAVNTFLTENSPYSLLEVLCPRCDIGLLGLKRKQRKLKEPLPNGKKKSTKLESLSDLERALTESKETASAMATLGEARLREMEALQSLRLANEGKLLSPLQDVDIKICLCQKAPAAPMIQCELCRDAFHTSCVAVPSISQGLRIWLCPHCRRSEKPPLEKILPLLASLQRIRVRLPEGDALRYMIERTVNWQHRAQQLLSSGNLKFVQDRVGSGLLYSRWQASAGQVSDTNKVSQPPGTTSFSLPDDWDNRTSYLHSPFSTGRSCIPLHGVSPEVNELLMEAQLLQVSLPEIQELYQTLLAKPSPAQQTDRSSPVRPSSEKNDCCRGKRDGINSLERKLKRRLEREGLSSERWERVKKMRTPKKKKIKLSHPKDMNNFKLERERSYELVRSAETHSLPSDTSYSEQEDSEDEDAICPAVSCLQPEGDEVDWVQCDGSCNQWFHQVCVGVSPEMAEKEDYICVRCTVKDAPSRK
Put plainly: LANCE Ultra TR-FRET JARID1B (KDM5B) demethylase inhibition assay. Format: biochemical. The note with it: 0.1 uM of test-compounds, FLAG-JARID1B, 500 nM biotinylated H3K4me3 peptide substrate, 30 min at room temperature. In short, it runs like this:
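FLAG-tagged JARID1B from Sf9 cells, pre-incubated 5 min with 0.1 uM compound (1% DMSO), then 500 nM biotinylated H3K4me3 peptide, 500 uM 2-OG, 25 uM Fe(II), 2 mM ascorbate in pH 7.5 Hepes buffer. After 30 min at room temperature, H3K4me2/1 product detected by TR-FRET (665/590 nm ratio).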
In general terms: Time-resolved FRET reads energy transfer from a long-lived donor to a nearby acceptor.
`CN1CCN(CCNc2nc(-c3nccc4c(=O)[nH]c(COc5ccc(F)c(Cl)c5)nc34)cs2)CC1` [Compound 89, 2-((3-chloro-4-fluorophenoxy)methyl)-8-(2-((2-(4-methylpiperazin-1-yl)ethyl)amino)thiazol-4-yl)pyrido[3,4-d]pyrimidin-4(3H)-one]: the inhibition (commonly the share of the control response that was lost under treatment) at 0.1 µM is not below 50%.

Regarding `O=c1[nH]c(COc2ccc(F)c(Cl)c2)nc2c(-c3csc(NCCCO)n3)nccc12` [Compound 90, 2-((3-chloro-4-fluorophenoxy)methyl)-8-(2-((3-hydroxypropyl)amino)thiazol-4-yl)pyrido[3,4-d]pyrimidin-4(3H)-one], the inhibition at 0.1 µM is not below 50%.

For the molecule `CN(C)CCCNc1nc(-c2nccc3c(=O)[nH]c(COc4ccc(F)c(Cl)c4)nc23)cs1` [Compound 91, 2-((3-chloro-4-fluorophenoxy)methyl)-8-(2-((3-(dimethylamino)propyl)amino)thiazol-4-yl)pyrido[3,4-d]pyrimidin-4(3H)-one], the inhibition at 0.1 µM is not below 50%.

Take `CN1CCCC1CCNc1nc(-c2nccc3c(=O)[nH]c(COc4ccc(F)c(Cl)c4)nc23)cs1` (centres unmarked) [Compound 92, 2-((3-chloro-4-fluorophenoxy)methyl)-8-(2-((2-(1-methylpyrrolidin-2-yl)ethyl)amino)thiazol-4-yl)pyrido[3,4-d]pyrimidin-4(3H)-one]: the inhibition at 0.1 µM is not below 50%. Take `O=c1[nH]c(COc2ccc(F)c(Cl)c2)nc2c(-c3csc(NC4CCNCC4)n3)nccc12` [Compound 93, 2-((3-chloro-4-fluorophenoxy)methyl)-8-(2-(piperidin-4-ylamino)thiazol-4-yl)pyrido[3,4-d]pyrimidin-4(3H)-one]: the inhibition at 0.1 µM was not below 50%.

With `CN1CCC(Nc2nc(-c3nccc4c(=O)[nH]c(COc5ccc(F)c(Cl)c5)nc34)cs2)CC1` [Compound 94, 2-((3-chloro-4-fluorophenoxy)methyl)-8-(2-((1-methylpiperidin-4-yl)amino)thiazol-4-yl)pyrido[3,4-d]pyrimidin-4(3H)-one], the inhibition at 0.1 µM is not below 50%. The same measure for `CCC(O)CNc1nc(-c2nccc3c(=O)[nH]c(COc4ccc(F)c(Cl)c4)nc23)cs1` (centres unmarked) [Compound 95, 2-((3-chloro-4-fluorophenoxy)methyl)-8-(2-((2-hydroxybutyl)amino)thiazol-4-yl)pyrido[3,4-d]pyrimidin-4(3H)-one]: 20 to 50%; for `O=c1[nH]c(COc2ccc(F)c(Cl)c2)nc2c(-c3csc(NCC4CCN(Cc5ccccc5)CC4)n3)nccc12` [Compound 96, 8-(2-(((1-benzylpiperidin-4-yl)methyl)amino)thiazol-4-yl)-2-((3-chloro-4-fluorophenoxy)methyl) pyrido[3,4-d]pyrimidin-4(3H)-one]: less than 20%; for `CC(C)N1CCC(CNc2nc(-c3nccc4c(=O)[nH]c(COc5ccc(F)c(Cl)c5)nc34)cs2)CC1` [Compound 97, 2-((3-chloro-4-fluorophenoxy)methyl)-8-(2-(((1-isopropylpiperidin-4-yl)methyl)amino)thiazol-4-yl)pyrido[3,4-d]pyrimidin-4(3H)-one]: 20 to 50%.

Regarding `O=c1[nH]c(COc2ccc(F)c(Cl)c2)nc2c(-c3csc(NCC4CCN(C5CCCC5)CC4)n3)nccc12` [Compound 98, 2-((3-chloro-4-fluorophenoxy)methyl)-8-(2-(((1-cyclopentylpiperidin-4-yl)methyl)amino)thiazol-4-yl)pyrido[3,4-d]pyrimidin-4(3H)-one], the inhibition at 0.1 µM was 20 to 50%.

As for `O=c1[nH]c(COc2ccc(F)c(Cl)c2)nc2c(-c3csc(NCC4CCNCC4)n3)nccc12` [Compound 99, 2-((3-chloro-4-fluorophenoxy)methyl)-8-(2-((piperidin-4-ylmethyl)amino)thiazol-4-yl)pyrido[3,4-d]pyrimidin-4(3H)-one], the inhibition at 0.1 µM lay within 20 to 50%. The same measure for `O=c1[nH]c(COc2ccc(F)c(Cl)c2)nc2c(-c3csc(NCC4CCN(CCO)CC4)n3)nccc12` [Compound 100, 2-((3-chloro-4-fluorophenoxy)methyl)-8-(2-(((1-(2-hydroxyethyl)piperidin-4-yl)methyl)amino)thiazol-4-yl)pyrido[3,4-d]pyrimidin-4(3H)-one]: 20 to 50%; for `COCCN1CCC(CNc2nc(-c3nccc4c(=O)[nH]c(COc5ccc(F)c(Cl)c5)nc34)cs2)CC1` [Compound 101, 2-((3-chloro-4-fluorophenoxy)methyl)-8-(2-(((1-(2-methoxyethyl)piperidin-4-yl)methyl)amino)thiazol-4-yl)pyrido[3,4-d]pyrimidin-4(3H)-one]: 20 to 50%. The same measure for `O=c1[nH]c(COc2ccc(F)c(Cl)c2)nc2c(-c3csc(NC4CCN(Cc5ccccc5)CC4)n3)nccc12` [Compound 102, 8-(2-((1-benzylpiperidin-4-yl)amino)thiazol-4-yl)-2-((3-chloro-4-fluorophenoxy)methyl) pyrido[3,4-d]pyrimidin-4(3H)-one]: not below 50%; for `Cc1nc(-c2nccc3c(=O)[nH]c(COc4ccc(F)c(Cl)c4)nc23)cs1` [Compound 103, 2-((3-chloro-4-fluorophenoxy)methyl)-8-(2-methylthiazol-4-yl)pyrido[3,4-d]pyrimidin-4(3H)-one]: less than 20%; for `Nc1nc(-c2nccc3c(=O)[nH]c(COc4ccc(F)c(Cl)c4)nc23)cs1` [Compound 104, 8-(2-aminothiazol-4-yl)-2-((3-chloro-4-fluorophenoxy)methyl) pyrido[3,4-d]pyrimidin-4(3H)-one]: 20 to 50%. The same measure for `CCN(CC)c1nc(-c2nccc3c(=O)[nH]c(COc4ccc(F)c(Cl)c4)nc23)cs1` [Compound 105, 2-((3-chloro-4-fluorophenoxy)methyl)-8-(2-(diethylamino)thiazol-4-yl)pyrido[3,4-d]pyrimidin-4(3H)-one]: less than 20%; for `O=c1[nH]c(COc2ccc(F)c(Cl)c2)nc2c(-c3cscn3)nccc12` [Compound 106, 2-((3-chloro-4-fluorophenoxy)methyl)-8-(thiazol-4-yl)pyrido[3,4-d]pyrimidin-4(3H)-one]: 20 to 50%. Regarding `O=c1[nH]c(COc2ccc(F)c(Cl)c2)nc2c(-c3csc(NC4CCN(Cc5ccccc5)C4)n3)nccc12` (centres unmarked) [Compound 107, 8-(2-((1-benzylpyrrolidin-3-yl)amino)thiazol-4-yl)-2-((3-chloro-4-fluorophenoxy)methyl) pyrido[3,4-d]pyrimidin-4(3H)-one], the inhibition at 0.1 µM lay in the range of 20 to 50%. The same measure for `O=c1[nH]c(COc2ccc(F)c(Cl)c2)nc2c(-c3csc(NCCc4ccc(Cl)c(Cl)c4)n3)nccc12` [Compound 108, 2-((3-chloro-4-fluorophenoxy)methyl)-8-(2-((3,4-dichlorophenethyl)amino)thiazol-4-yl)pyrido[3,4-d]pyrimidin-4(3H)-one]: less than 20%; for `O=c1[nH]c(COc2ccc(F)c(Cl)c2)nc2c(-c3csc(NCCCc4ccccc4Cl)n3)nccc12` [Compound 109, 2-((3-chloro-4-fluorophenoxy)methyl)-8-(2-((3-(2-chlorophenyl)propyl)amino)thiazol-4-yl)pyrido[3,4-d]pyrimidin-4(3H)-one]: less than 20%.

For the molecule `O=c1[nH]c(COc2ccc(F)c(Cl)c2)nc2c(-c3csc(NCCc4ccccc4Oc4ccccc4)n3)nccc12` [Compound 110, 2-((3-chloro-4-fluorophenoxy)methyl)-8-(2-((2-phenoxyphenethyl)amino)thiazol-4-yl)pyrido[3,4-d]pyrimidin-4(3H)-one], the inhibition at 0.1 µM is less than 20%.

Regarding `O=c1[nH]c(COc2ccc(F)c(Cl)c2)nc2c(-c3csc(NCC(O)c4ccncc4)n3)nccc12` (centres unmarked) [Compound 111, 2-((3-chloro-4-fluorophenoxy)methyl)-8-(2-((2-hydroxy-2-(pyridin-4-yl)ethyl)amino)thiazol-4-yl)pyrido[3,4-d]pyrimidin-4(3H)-one], the inhibition at 0.1 µM lay within 20 to 50%. Consider `Cc1ccc(CCNc2nc(-c3nccc4c(=O)[nH]c(COc5ccc(F)c(Cl)c5)nc34)cs2)cc1C` [Compound 112, 2-((3-chloro-4-fluorophenoxy)methyl)-8-(2-((3,4-dimethylphenethyl)amino)thiazol-4-yl)pyrido[3,4-d]pyrimidin-4(3H)-one], for which the inhibition at 0.1 µM was less than 20%.

Take `O=c1[nH]c(COc2ccc(F)c(Cl)c2)nc2c(-c3csc(NCC(O)CN4CCNCC4)n3)nccc12` (centres unmarked) [Compound 113, 2-((3-chloro-4-fluorophenoxy)methyl)-8-(2-((2-hydroxy-3-(piperazin-1-yl)propyl)amino)thiazol-4-yl)pyrido[3,4-d]pyrimidin-4(3H)-one]: the inhibition at 0.1 µM is not below 50%. The same measure for `O=c1[nH]c(COc2ccc(F)c(Cl)c2)nc2c(-c3cccc(Cl)n3)nccc12` [Compound 114, 2-((3-chloro-4-fluorophenoxy)methyl)-8-(6-chloropyridin-2-yl)pyrido[3,4-d]pyrimidin-4(3H)-one]: less than 20%; for `CC1CCN(c2cccc(-c3nccc4c(=O)[nH]c(COc5ccc(F)c(Cl)c5)nc34)n2)CC1` [Compound 115, 2-((3-chloro-4-fluorophenoxy)methyl)-8-(6-(4-methylpiperidin-1-yl)pyridin-2-yl)pyrido[3,4-d]pyrimidin-4(3H)-one]: less than 20%. The same measure for `O=c1[nH]c(COc2ccc(F)c(Cl)c2)nc2c(-c3cccc(N4CCOCC4)n3)nccc12` [Compound 116, 2-((3-chloro-4-fluorophenoxy)methyl)-8-(6-morpholinopyridin-2-yl)pyrido[3,4-d]pyrimidin-4(3H)-one]: less than 20%; for `CCN(CC)CCCC(C)Nc1nc(-c2nccc3c(=O)[nH]c(COc4ccc(F)c(Cl)c4)nc23)cs1` (centres unmarked) [Compound 118, 2-((3-chloro-4-fluorophenoxy)methyl)-8-(2-((5-(diethylamino)pentan-2-yl)amino)thiazol-4-yl)pyrido[3,4-d]pyrimidin-4(3H)-one]: 20 to 50%.
